In PubChem BioAssay AID624485 (The Scripps Research Institute Molecular Screening Center, 2012) one finds inhibition data, which are given here for four compounds.

Values joined by “and” are separate entries in the source; they are usually repeats but may differ in a detail not shown here. Equal values may be shown once. Active and inactive are the calls of the source.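 Rule for the calls: active = over 50% inhibition of probe labelling of the prolyl oligopeptidase-like enzyme in cells; inactive = inhibition at or below 50%.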

The target in the assay is Prolyl endopeptidase-like (Mus musculus) (UniProt Q8C167). Briefly: in situ blockade of mouse PREPL – cell-based, click chemistry ABPP, gel, fluorescence (AID 624485). Conditions: Neuro-2A transfected mPrepl, in situ gel CC-ABPP; at 50 µM; active compounds read high.
Chain of Prolyl endopeptidase-like (Mus musculus) (Q8C167 whole entry, looked up): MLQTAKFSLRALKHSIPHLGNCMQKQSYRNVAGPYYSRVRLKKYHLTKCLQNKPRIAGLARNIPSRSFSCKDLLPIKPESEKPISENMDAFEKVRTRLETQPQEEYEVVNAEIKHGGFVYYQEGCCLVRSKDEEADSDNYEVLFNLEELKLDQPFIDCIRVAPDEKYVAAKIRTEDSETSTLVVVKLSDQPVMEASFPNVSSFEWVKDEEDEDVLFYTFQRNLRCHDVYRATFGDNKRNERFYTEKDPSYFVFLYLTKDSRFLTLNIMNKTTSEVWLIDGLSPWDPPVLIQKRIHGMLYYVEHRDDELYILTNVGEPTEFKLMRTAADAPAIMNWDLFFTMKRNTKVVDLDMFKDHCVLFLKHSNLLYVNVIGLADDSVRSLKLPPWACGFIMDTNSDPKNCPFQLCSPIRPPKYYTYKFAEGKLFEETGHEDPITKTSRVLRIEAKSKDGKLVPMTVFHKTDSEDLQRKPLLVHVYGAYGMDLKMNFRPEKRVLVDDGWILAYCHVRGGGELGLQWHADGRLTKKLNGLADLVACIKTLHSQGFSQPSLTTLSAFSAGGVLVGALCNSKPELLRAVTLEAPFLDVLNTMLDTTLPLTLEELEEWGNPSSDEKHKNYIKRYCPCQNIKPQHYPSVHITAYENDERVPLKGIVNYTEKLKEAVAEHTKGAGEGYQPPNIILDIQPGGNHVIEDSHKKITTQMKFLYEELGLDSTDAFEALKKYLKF
Regarding `N#Cc1c2c(c(-c3ccccc3)[nH]c1=O)CCCC2`, the inhibition was 60%.

`CCOc1ccc(CCNC(=O)c2ccc3c(=O)[nH]c4c(C(=O)NC(C)C)sc(=S)n4c3c2)cc1`: the inhibition was -29% (inactive) and 0% (inactive).

For the compound `O=C(Nc1ccc2c(c1)OCCO2)c1cccc2nc3ccccc3nc12`, the inhibition is -26% (inactive).

Regarding `CC(C)Cc1[nH]c(=O)c(C#N)c2c1CCC2`, the inhibition is 90%.
